From patent US20100240754A1, “UNSATURATED FATTY AMINO ACID DERIVATIVES AND USE THEREOF IN DERMAL COSMETOLOGY” (Pierre Fabre Demo-Cosmetique, priority 2007, published 2010)
“Also recorded” adds a separate entry of the source.

Tests used:
production of IL8 = experiment: Production of interleukin 8 induced in keratinocytes by PMA and calcium ionophore A23187 (ELISA); assay type: cell-based; conditions: for Inhibitory activity % of molecules evaluated on the production of IL8 / inhibition at 3 µg/mL: 3 μg/mL, keratinocytes, 60 min pre-incubation, PMA 1 μM + A23187 0.1 μM, 6 hours, percentage of activity/stimulated control; for inhibition at 3 µg/mL: Keratinocyte, read-out: Inhibitory activity % of molecules evaluated on the production of IL8; for anti-inflammatory potentialities (IL8 production), in words: summary of Table 2 data
Procedure: In this study conducted on 96-well plates, we evaluated the activity of amino-alkene acids, on the production of interleukin 8 induced at the keratinocyte by the phorbol ester PMA and the calcium ionophore A23187.
(§1) The suspension of keratinocytes in supplemented KSFM is distributed into plates of 96 wells (3.10^4 cells/well), and incubated for 16 hours at 37° C. in an atmosphere with 5% CO2. The keratinocytes are then rinsed with PBS in order to remove the non-adherent cells and then exposed to the products to be tested included in non-supplemented KSFM (which might interfere in the assay).
(§2) The tested culture concentration is 3 μg/mL. It was retained after a preliminary test for evaluating cytotoxicity (neutral red) and it is not cytotoxic.
For each treatment, 3 wells are produced. The cells are pre-incubated for 60 min with the products to be tested and then stimulated, in parallel with negative controls without any stimulant: Phorbol Myristate Acetate (PMA) 1 μM+calcium Ionophore (A23187) 0.1 μM.
Incubation for 6 hours at 37° C. in a humid air atmosphere containing 5% of CO2.
The culture media of each of the wells are recovered, centrifuged at 3,000 rpm and stored at −80° C.
Assay of the cytokines: IL8 is assayed by an immunoenzymatic method with an ELISA kit (Immunotech).
The results are gathered in Table 2 and are expressed in percentage of activity/stimulated control.

fibroblast line L929 = experiment: Test of TBARS: lipid peroxidation after H2O2-Fe2+/Fe3+ stress; assay type: cell-based, murine; conditions: for inhibition at 20 pg/mL: Mus musculus, Dose = 0.02 ng/mL, L929, 16 hours pretreatment, H2O2-Fe2+/Fe3+ (200 μM-1 mM) 1 hour, TBARS, read-out: % of protection of membrane lipids, Average; for antiradical activity and protection of cell membranes, in words: L929, TBARS test, conclusion from Table 4
Excerpt: In order to evaluate membrane alteration, we have measured lipid peroxidation by an assay in vitro of the complexes between lipid oxidation products and thiobarbituric acid. These complexes are called TBARS (Thiobarbituric Acid Reactive Substances) and give the name to the test: Test of TBARS.
In order to mimic a chemical oxidative stress, we treated a fibroblast line, L929, with a complex composed of hydrogen peroxide (H2O2) and of iron (Fe^2+/Fe^3+) thereby regenerating Fenton's reaction, source of FORs and more particularly of hydroxyl radicals)(OH^0) (D. A. Vessey et al., 1992):
The products were evaluated on the murine fibroblast line L929. The cells were pretreated with the different concentrations of products for 16 hours and were then stimulated with the complex H2O2—Fe^2+/Fe^3+ (200 μM-1 mM) for 1 hour.
Mother solutions: 100 mg/mL, ethanol, 4° C. Final solutions: 0.02 ng/mL.
Peroxidation of membrane lipids is analyzed by measuring the TBARS (Procedure Ref. PL No. 2, according to Morlière et al., 1991).
In an acid medium, at 95° C., complexes noted as TBARS for Thio Barbituric Acid Reactive Substance are formed, between the lipid oxidation products (malonic dialdehyde or MDA) and thiobarbituric acid (TBA) which may be assayed by fluorescence relatively to a standard range with MDA. The dosage of the TBARS is then expressed in pmol/μg of proteins. The proteins and the TBARS are assayed in the intracellular medium.
From the calculation of the TBARS in pmol/μg of proteins, we calculated the protective efficiency of different products against oxidation of membrane lipids.
Seven independent experiments were conducted. During these experiments, various compounds were evaluated (with the test, it is not possible to evaluate more than 10 molecules at the same time). The compounds which were evaluated several times were selected according to the results obtained in the other test also measuring antiradical activity (test for assaying oxygen active species, OASes).

production of PG6KF1α = experiment: Production of prostaglandin 6KF1α by keratinocytes stimulated with calcium ionophore A23187 (ELISA); assay type: cell-based; conditions: for inhibition at 3 µg/mL: Keratinocyte, read-out: Inhibitory activity % of molecules evaluated on the production of PG6KF1α; for effective dose 45 (DE45), production of PG6KF1α: keratinocytes stimulated with A23187; for anti-inflammatory potentialities (PG6KF1α production), in words: summary of Table 1 data
Procedure: The prostaglandin PG6KF1 alpha, is one of the major metabolites produced by the stimulated keratinocyte, and representative of the modulation of the production of metabolites of the metabolism of arachidonic acid stemming from the cyclo-oxygenase route.
as §1, with “DMEM with 10% FCS” for “supplemented KSFM”, “in” for “into”, “6” for “96”, “(1.2 106” for “(3.10^4”, “eliminate” for “remove the”, “DMEM without FCS” for “non-supplemented KSFM”
as §2
For each treatment, 3 wells were produced. The cells were pre-incubated for 60 min with the products to be tested and then an agent stimulating the cascade of arachidonic acid, the calcium ionophore, is added for 5 hours: the calcium ionophore A23187 is used at a concentration of 1 μM.
After these 5 hours of culture, the culture media of each of the wells are recovered, centrifuged at 3,000 rpm and stored at −80° C.
The production of prostaglandin 6KF1α for each of the tests is measured with the Elisa kit EUROMEDEX.
The results are gathered in Table 1 and are expressed in percentage of activity/stimulated control.

[1] = 3 μg/mL, keratinocytes, 60 min pre-incubation, calcium ionophore A23187 1 μM for 5 hours, percentage of activity/stimulated control

Compound	Inhibitory activity % of molecules evaluated on the production of IL8 (production of IL8)	inhibition at 20 pg/mL (fibroblast line L929)	inhibition at 3 µg/mL (production of PG6KF1α; [1])	Inhibitory activity % of molecules evaluated on the production of PG6KF1α (production of PG6KF1α; [1])	inhibition at 3 µg/mL (production of IL8)	antiradical activity and protection of cell membranes, in words (fibroblast line L929)	effective dose 45 (DE45), production of PG6KF1α (production of PG6KF1α)	anti-inflammatory potentialities (PG6KF1α production), in words (production of PG6KF1α)	anti-inflammatory potentialities (IL8 production), in words (production of IL8)
Cl.NCCC/C=C/C(=O)O [Compound No. 1, (E)-6-amino-hex-2-enoic acid]	~	13.4%	< 0%	–	–	–	–	–	–
NCCC/C=C(/F)C(=O)O [Compound No. 2, (E)-6-amino-2-fluoro-hex-2-enoic acid]	~	7.63%	–	~	–	–	–	–	–
Cl.NCCCC/C=C/C(=O)O [Compound No. 4, (E)-7-amino-hept-2-enoic acid]	~	8.75%	18%	–	–	–	–	–	–
NCCCCC=C(F)C(=O)O [Compound No. 5, (Z+E)-7-amino-2-fluoro-hept-2-enoic acid]	–	36.3%	41%	–	< 0%	significant antiradical activity	25 µg/mL	anti-inflammatory potentialities	–
Cl.NCCCCC/C=C/C(=O)O [Compound No. 7, (E)-8-amino-oct-2-enoic acid]	~	48.3%	36%	–	–	significant antiradical activity; also recorded: most significant antiradical activity	–	anti-inflammatory potentialities	–
Cl.NCCCCCC/C=C/C(=O)O [Compound No. 8, (E)-9-amino-non-2-enoic acid]	–	56.6%	8%	–	14%	significant antiradical activity; also recorded: most significant antiradical activity	–	–	–
Cl.NCCCCCCC=C(F)C(=O)O [Compound No. 9, 9-amino-2-fluoro-non-2-enoic acid]	–	27.5%	17%	–	20%	significant antiradical activity	–	–	anti-inflammatory potentialities
Cl.NCCCCCCCCCCCC=C(F)C(=O)O [Compound No. 10, 14-amino-2-fluoro-tetradec-2-enoic acid]	–	23.9%	38%	–	8%	significant antiradical activity	–	anti-inflammatory potentialities	–
Cl.NCCCCCCCCCCC/C=C/C(=O)O [Compound No. 11, (E)-14-amino-tetradec-2-enoic acid]	–	-26.3%	40%	–	22%	–	10 µg/mL	anti-inflammatory potentialities	anti-inflammatory potentialities
NCCC/C=C(\F)C(=O)O [compound 3, (Z)-6-amino-2-fluoro-hex-2-enoic acid]	~	-4%	22%	–	–	–	–	–	–
NCCCC/C=C(\F)C(=O)O [compound 6, (Z)-7-amino-2-fluoro-hept-2-enoic acid]	–	49.8%	25%	–	< 0%	significant antiradical activity; also recorded: most significant antiradical activity	–	–	–
